Results reported in PubChem BioAssay (NCI).
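Cultured in 96-well plates, cells were exposed to test compound for 48 hours across five concentrations. Here, GI50 denotes the concentration required for 50% inhibition of growth. TGI denotes the concentration required for complete inhibition of growth.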

Assays:
Assay in all cases: NCI-60 cell line screen, 48 h
IGROV1 ovarian = test system: IGROV1 ovarian
SK-MEL-28 melanoma = test system: SK-MEL-28 melanoma
U251 CNS = test system: U251 CNS
SR leukemia = test system: SR leukemia
COLO 205 colon = test system: COLO 205 colon
SF-539 CNS = test system: SF-539 CNS
HCT-15 colon = test system: HCT-15 colon
SN12C renal = test system: SN12C renal
CAKI-1 renal = test system: CAKI-1 renal
DU-145 prostate = test system: DU-145 prostate
SNB-19 CNS = test system: SNB-19 CNS
HCC-2998 colon = test system: HCC-2998 colon
SW-620 colon = test system: SW-620 colon
K-562 leukemia = test system: K-562 leukemia
MDA-MB-231 breast = test system: MDA-MB-231 breast
MDA-MB-435 = test system: MDA-MB-435
UACC-62 melanoma = test system: UACC-62 melanoma
EKVX NSCLC = test system: EKVX NSCLC
SK-MEL-2 melanoma = test system: SK-MEL-2 melanoma
SK-MEL-5 melanoma = test system: SK-MEL-5 melanoma
OVCAR-8 ovarian = test system: OVCAR-8 ovarian
786-0 renal = test system: 786-0 renal
MOLT-4 leukemia = test system: MOLT-4 leukemia
OVCAR-5 ovarian = test system: OVCAR-5 ovarian
MCF7 breast = test system: MCF7 breast
SF-268 CNS = test system: SF-268 CNS
TK-10 renal = test system: TK-10 renal
SNB-75 CNS = test system: SNB-75 CNS
HOP-92 NSCLC = test system: HOP-92 NSCLC
RXF 393 renal = test system: RXF 393 renal
PC-3 prostate = test system: PC-3 prostate
UACC-257 melanoma = test system: UACC-257 melanoma
CCRF-CEM leukemia = test system: CCRF-CEM leukemia
NCI-H23 lung = test system: NCI-H23 lung
HS 578T breast = test system: HS 578T breast
ACHN renal = test system: ACHN renal
OVCAR-4 ovarian = test system: OVCAR-4 ovarian
T-47D breast = test system: T-47D breast
HT29 colon = test system: HT29 colon
LOX IMVI melanoma = test system: LOX IMVI melanoma
M14 melanoma = test system: M14 melanoma
BT-549 breast = test system: BT-549 breast
SK-OV-3 ovarian = test system: SK-OV-3 ovarian
UO-31 renal = test system: UO-31 renal
NCI-H226 lung = test system: NCI-H226 lung
HL-60(TB) leukemia = test system: HL-60(TB) leukemia
NCI-H460 lung = test system: NCI-H460 lung
NCI-H522 lung = test system: NCI-H522 lung
HCT-116 colon = test system: HCT-116 colon
NCI/ADR-RES ovarian = test system: NCI/ADR-RES ovarian
A549 NSCLC = test system: A549 NSCLC
MALME-3M melanoma = test system: MALME-3M melanoma
SF-295 CNS = test system: SF-295 CNS
OVCAR-3 ovarian = test system: OVCAR-3 ovarian
HOP-62 NSCLC = test system: HOP-62 NSCLC
RPMI-8226 leukemia = test system: RPMI-8226 leukemia
A498 renal = test system: A498 renal
KM12 colon = test system: KM12 colon

Q: What does the source list for `Cc1nc2cnc3cc(F)c(-c4ccc(Oc5ncccn5)cc4Cl)cc3c2n1[C@H]1CCN(C(=O)CO)C[C@@H]1F`?
A: GI50 (IGROV1 ovarian): 936 nM; TGI (IGROV1 ovarian): > 100 µM; GI50 (SK-MEL-28 melanoma): 23 nM; TGI (SK-MEL-28 melanoma): 12.1 µM; GI50 (U251 CNS): 5.91 µM; TGI (U251 CNS): > 100 µM; GI50 (SR leukemia): 13.3 µM; TGI (SR leukemia): 54.4 µM; GI50 (COLO 205 colon): 22.9 nM; TGI (COLO 205 colon): 1680 nM; GI50 (SF-539 CNS): 3.03 µM; TGI (SF-539 CNS): 16.9 µM; GI50 (HCT-15 colon): 3.6 µM; TGI (HCT-15 colon): > 100 µM; GI50 (SN12C renal): 1200 nM; TGI (SN12C renal): 36.8 µM; GI50 (CAKI-1 renal): 558 nM; TGI (CAKI-1 renal): 16.4 µM; GI50 (DU-145 prostate): 4.36 µM; TGI (DU-145 prostate): > 100 µM; GI50 (SNB-19 CNS): 4.89 µM; TGI (SNB-19 CNS): > 100 µM; GI50 (HCC-2998 colon): 261 nM; TGI (HCC-2998 colon): 15.3 µM; GI50 (SW-620 colon): 422 nM; TGI (SW-620 colon): 54.6 µM; GI50 (K-562 leukemia): 4.6 µM; TGI (K-562 leukemia): > 100 µM; GI50 (MDA-MB-231 breast): 101 nM; TGI (MDA-MB-231 breast): 5.83 µM; GI50 (MDA-MB-435): 69.2 nM; TGI (MDA-MB-435): > 60.7 µM; GI50 (UACC-62 melanoma): 13.4 nM; TGI (UACC-62 melanoma): 87.5 nM; GI50 (EKVX NSCLC): 3.23 µM; TGI (EKVX NSCLC): > 95.5 µM; GI50 (SK-MEL-2 melanoma): 59 nM; TGI (SK-MEL-2 melanoma): 536 nM; GI50 (SK-MEL-5 melanoma): 490 nM; TGI (SK-MEL-5 melanoma): 14.7 µM; GI50 (OVCAR-8 ovarian): 7.35 µM; TGI (OVCAR-8 ovarian): > 100 µM; GI50 (786-0 renal): 8.47 µM; TGI (786-0 renal): > 100 µM; GI50 (MOLT-4 leukemia): 792 nM; TGI (MOLT-4 leukemia): 30 µM; GI50 (OVCAR-5 ovarian): 279 nM; TGI (OVCAR-5 ovarian): > 40.1 µM; GI50 (MCF7 breast): 6.51 µM; TGI (MCF7 breast): > 58.2 µM; GI50 (SF-268 CNS): 6.12 µM; TGI (SF-268 CNS): > 100 µM; GI50 (TK-10 renal): 1760 nM; TGI (TK-10 renal): 36 µM; GI50 (SNB-75 CNS): 12 µM; TGI (SNB-75 CNS): 36.2 µM; GI50 (HOP-92 NSCLC): 403 nM; TGI (HOP-92 NSCLC): 3.5 µM; GI50 (RXF 393 renal): 2020 nM; TGI (RXF 393 renal): 10.9 µM; GI50 (PC-3 prostate): 28.9 µM; TGI (PC-3 prostate): > 100 µM; GI50 (UACC-257 melanoma): 26.9 nM; TGI (UACC-257 melanoma): 411 nM; GI50 (CCRF-CEM leukemia): 1690 nM; TGI (CCRF-CEM leukemia): > 76.8 µM; GI50 (NCI-H23 lung): 320 nM; TGI (NCI-H23 lung): 13.7 µM; GI50 (HS 578T breast): 13.4 µM; TGI (HS 578T breast): 77.3 µM; GI50 (ACHN renal): 8.19 µM; TGI (ACHN renal): > 100 µM; GI50 (OVCAR-4 ovarian): 20.8 µM; TGI (OVCAR-4 ovarian): > 83.9 µM; GI50 (T-47D breast): 36 µM; TGI (T-47D breast): > 100 µM; GI50 (HT29 colon): 51.3 nM; TGI (HT29 colon): 16.9 µM; GI50 (LOX IMVI melanoma): 417 nM; TGI (LOX IMVI melanoma): 11.5 µM; GI50 (M14 melanoma): 15.5 nM; TGI (M14 melanoma): 882 nM; GI50 (BT-549 breast): 7.51 µM; TGI (BT-549 breast): 23.1 µM; GI50 (SK-OV-3 ovarian): 3.93 µM; TGI (SK-OV-3 ovarian): > 100 µM; GI50 (UO-31 renal): 1780 nM; TGI (UO-31 renal): 24.4 µM; GI50 (NCI-H226 lung): 5.18 µM; TGI (NCI-H226 lung): 29.8 µM; GI50 (HL-60(TB) leukemia): 106 nM; TGI (HL-60(TB) leukemia): 1690 nM; GI50 (NCI-H460 lung): 2540 nM; TGI (NCI-H460 lung): > 100 µM; GI50 (NCI-H522 lung): 7.17 µM; TGI (NCI-H522 lung): 32.7 µM; GI50 (HCT-116 colon): 255 nM; TGI (HCT-116 colon): 15.4 µM; GI50 (NCI/ADR-RES ovarian): 8.38 µM; TGI (NCI/ADR-RES ovarian): 49 µM; GI50 (A549 NSCLC): 1970 nM; TGI (A549 NSCLC): > 100 µM; TGI (MALME-3M melanoma): 31.6 nM; GI50 (SF-295 CNS): 8.41 µM; TGI (SF-295 CNS): > 57.1 µM; GI50 (OVCAR-3 ovarian): 20 µM; TGI (OVCAR-3 ovarian): > 76.3 µM; GI50 (HOP-62 NSCLC): 642 nM; TGI (HOP-62 NSCLC): 49.3 µM; GI50 (RPMI-8226 leukemia): 1350 nM; TGI (RPMI-8226 leukemia): 13.9 µM; GI50 (A498 renal): 4.58 µM; TGI (A498 renal): > 84.9 µM; GI50 (KM12 colon): 40.5 nM; TGI (KM12 colon): > 100 µM
